Data: patent US10221177B2 (HYDRA BIOSCIENCES, INC., priority 2014, dated 2019)

How the values were obtained:
[1] = molecular target: human TRPA1 (Homo sapiens (Human), UniProt O75762); assay: In vitro inhibition of human TRPA1, whole cell patch configuration; assay type: cell-based; settings: current activation 10 μM AITC, tested concentrations 320 pM to 3.2 μM, read-out: hTRPA1 IC50
Method in brief: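 Compound antagonism measured from voltage ramps (±100 or ±80 mV, 400 ms, every 4 s from −40 mV), analysed at −80 and 80 mV, or at constant −60 mV. HEPES-buffered NaCl bath, pH 7.4, EGTA or 2 mM Ca2+; temperature set by perfusion, within ±2° C; no junction-potential correction.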

[2] = tested on: formalin-induced pain behaviors in the rat; assay: Formalin-induced pain test (formalin model), duration of pain behaviors; assay type: in vivo
Protocol: Exemplary compounds of the invention were tested in the formalin-induced pain test reported by Dubuisson et al., Pain 1977 December; 4(2):161-74 (incorporated herein by reference in its entirety). Briefly, dilute formalin (50 μL of 3% formalin) was injected into the plantar surface of the hind paw of a rat. […] The individual responsible for counting the pain behaviors in a particular study was blinded to the treatment groups.
The initial phase (Phase I: 0-5 min) is thought to have a significant component that is dependent upon direct activation of afferent fibers by formalin and functional TRPA1 (McNamara et al., 2007).
Investigators studied oral administration of compounds of the invention at the doses presented in Table 3 on pain behaviors in the formalin model in the rat. Compounds were formulated as solutions in water with various solvents and excipients including dimethyl sulfoxide (DMSO), polyethylene glycol (15)-hydroxystearate (Solutol®, Sigma-Aldrich), caprylocaproyl macrogol-8 glyceride (Labrasol®, Sigma-Aldrich), polysorbate-80 (Tween®-80, Sigma-Aldrich), and polyoxyl 35 castor oil (Cremophor® EL, BASF Corp.); or suspensions in methylcellulose as indicated in Table 3. Animals were dosed orally with the vehicle, or compounds of the invention one hour prior to intraplantar formalin. […] A decrease over Vehicle indicates a positive result. P values, when indicated, indicate significance compared Vehicle.

[3] = 1 mpk PO one hour prior to formalin, solution in 4% DMSO, 10% Solutol, 86% water
[4] = 3 mpk PO one hour prior to formalin, solution in 4% DMSO, 10% Solutol, 86% water
[5] = 10 mpk PO one hour prior to formalin, solution in 4% DMSO, 10% Solutol, 86% water
[6] = 30 mg/kg PO one hour prior to formalin, solution in 8% DMSO and 92% Labrasol
[7] = 1 mg/kg PO one hour prior to formalin, solution in 4% DMSO, 5% Tween-80, 20% Cremophor EL, 71% water
[8] = 3 mg/kg PO one hour prior to formalin, solution in 4% DMSO, 5% Tween-80, 20% Cremophor EL, 71% water
[9] = 10 mg/kg PO one hour prior to formalin, solution in 4% DMSO, 5% Tween-80, 20% Cremophor EL, 71% water
[10] = 30 mg/kg PO one hour prior to formalin, solution in 4% DMSO, 5% Tween-80, 20% Cremophor EL, 71% water

Sequence of human TRPA1 (O75762 whole entry, the tested form may be a part): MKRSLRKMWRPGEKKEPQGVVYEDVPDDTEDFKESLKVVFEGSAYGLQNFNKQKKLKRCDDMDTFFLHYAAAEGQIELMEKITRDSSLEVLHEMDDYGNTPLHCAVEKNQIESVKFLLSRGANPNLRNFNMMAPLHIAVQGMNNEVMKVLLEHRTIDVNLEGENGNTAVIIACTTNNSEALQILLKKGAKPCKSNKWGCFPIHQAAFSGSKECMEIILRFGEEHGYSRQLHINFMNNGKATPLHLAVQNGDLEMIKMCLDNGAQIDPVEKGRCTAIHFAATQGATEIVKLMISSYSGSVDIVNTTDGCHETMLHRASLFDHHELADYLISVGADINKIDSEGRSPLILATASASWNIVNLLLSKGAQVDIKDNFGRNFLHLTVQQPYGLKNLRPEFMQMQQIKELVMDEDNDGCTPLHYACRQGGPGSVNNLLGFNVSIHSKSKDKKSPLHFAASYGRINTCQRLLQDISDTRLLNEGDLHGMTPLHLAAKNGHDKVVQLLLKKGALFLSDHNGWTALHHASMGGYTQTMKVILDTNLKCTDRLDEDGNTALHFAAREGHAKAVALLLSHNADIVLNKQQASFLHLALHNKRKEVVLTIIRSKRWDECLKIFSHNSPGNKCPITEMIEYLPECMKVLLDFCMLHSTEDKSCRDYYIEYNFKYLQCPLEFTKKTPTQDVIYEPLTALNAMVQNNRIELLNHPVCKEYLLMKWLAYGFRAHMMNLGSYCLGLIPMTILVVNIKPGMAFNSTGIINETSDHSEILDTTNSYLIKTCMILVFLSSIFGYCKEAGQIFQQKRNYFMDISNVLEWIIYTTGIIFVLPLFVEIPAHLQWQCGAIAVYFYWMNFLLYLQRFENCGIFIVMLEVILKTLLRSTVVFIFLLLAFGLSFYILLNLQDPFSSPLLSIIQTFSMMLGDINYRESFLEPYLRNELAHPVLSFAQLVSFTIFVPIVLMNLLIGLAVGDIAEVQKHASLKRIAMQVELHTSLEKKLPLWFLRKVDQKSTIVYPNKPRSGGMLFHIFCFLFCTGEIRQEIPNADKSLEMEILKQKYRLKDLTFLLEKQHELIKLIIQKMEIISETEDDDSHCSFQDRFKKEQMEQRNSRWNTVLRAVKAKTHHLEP

Row | Compound | IC50 [1] [nM] | Duration (0-2 Minutes) Average [2, 9] [s] | Duration (0-5 Minutes) Average [2, 9] [s] | also measured
1 | Cc1cc(Cn2c(=O)c3c(ncn3[C@@H](C)C(=O)Nc3cccc(-c4ccc(C(F)(F)F)nc4)n3)n(C)c2=O)no1 [Compound 7, (S)-2-(3-methyl-1-((5-methylisoxazol-3-yl)methyl)-2,6-dioxo-2,3-dihydro-1H-purin-7(6H)-yl)-N-(6′-(trifluoromethyl)-[2,3′-bipyridin]-6-yl)propanamide] | 5 | – | – | Duration (0-2 Minutes) Average [2, 3]: 82.38 s; Duration (0-5 Minutes) Average [2, 3]: 200.38 s; Duration (0-2 Minutes) Average [2, 4]: 78.25 s; Duration (0-5 Minutes) Average [2, 4]: 173.75 s; Duration (0-2 Minutes) Average [2, 5]: 67.00 s; Duration (0-5 Minutes) Average [2, 5]: 170.50 s
2 | Cc1cc(Cn2c(=O)c3c(ncn3[C@@H](C)C(=O)Nc3cccc(-c4cnc(C(F)(F)F)nc4)n3)n(C)c2=O)no1 [Compound 15, (S)-2-(3-methyl-1-((5-methylisoxazol-3-yl)methyl)-2,6-dioxo-2,3-dihydro-1H-purin-7(6H)-yl)-N-(6-(2-(trifluoromethyl)pyrimidin-5-yl)pyridin-2-yl)propanamide] | – | – | – | Duration (0-2 Minutes) Average [2, 6]: 76.00 s; Duration (0-5 Minutes) Average [2, 6]: 190.20 s
3 | CCC(=O)Cn1c(=O)c2c(ncn2[C@@H](C)C(=O)Nc2cccc(-c3cnc(C)c(C(F)(F)F)c3)n2)n(C)c1=O [Compound 135, (S)-2-(3-methyl-2,6-dioxo-1-(2-oxobutyl)-2,3-dihydro-1H-purin-7(6H)-yl)-N-(6′-methyl-5′-(trifluoromethyl)-[2,3′-bipyridin]-6-yl)propanamide] | 4 | 74.3 | 139.0 | Duration (0-2 Minutes) Average [2, 7]: 91.1 s; Duration (0-5 Minutes) Average [2, 7]: 153.3 s; Duration (0-2 Minutes) Average [2, 8]: 80.3 s; Duration (0-5 Minutes) Average [2, 8]: 120.3 s
4 | C[C@@H](C(=O)Nc1cncc(-c2cnc(N3CC4CC4C3)nc2)n1)n1cnc2c1c(=O)n(CC#N)c(=O)n2C (stereo partly shown) [Compound 144] | 6 | 64.6 | 181.3 | –
5 | C[C@@H](C(=O)Nc1cccc(-c2cnc(N3CC4CC4C3)nc2)n1)n1cnc2c1c(=O)n(CC#N)c(=O)n2C (stereo partly drawn) [Compound 149, (2S)—N-(6-(2-(3-azabicyclo[3.1.0]hexan-3-yl)pyrimidin-5-yl)pyridin-2-yl)-2-(1-(cyanomethyl)-3-methyl-2,6-dioxo-2,3-dihydro-1H-purin-7(6H)-yl)propanamide] | 2 | – | – | Duration (0-2 Minutes) Average [2, 10]: 41.9 s; Duration (0-5 Minutes) Average [2, 10]: 153.0 s
6 | C[C@@H](C(=O)Nc1ccnc(-c2cnc(N3CC4CC4C3)nc2)n1)n1cnc2c1c(=O)n(CC#N)c(=O)n2C (stereo partly drawn) [Compound 155, (2S)—N-(2′-(3-azabicyclo[3.1.0]hexan-3-yl)-2,5′-bipyrimidin-4-yl)-2-(1-(cyanomethyl)-3-methyl-2,6-dioxo-2,3-dihydro-1H-purin-7(6H)-yl)propanamide] | 5 | 59.4 | 182.5 | –
7 | Cc1nc(Cn2c(=O)c3c(ncn3[C@@H](C)C(=O)Nc3ccnc(-c4cnc(C)c(C(F)(F)F)c4)n3)n(C)c2=O)no1 [Compound 172, (S)-2-(3-methyl-1-((5-methyl-1,2,4-oxadiazol-3-yl)methyl)-2,6-dioxo-2,3-dihydro-1H-purin-7(6H)-yl)-N-(2-(6-methyl-5-(trifluoromethyl)pyridin-3-yl)pyrimidin-4-yl)propanamide] | 2 | 83.1 | 151.6 | Duration (0-2 Minutes) Average [2, 7]: 88.6 s; Duration (0-5 Minutes) Average [2, 7]: 151.0 s; Duration (0-2 Minutes) Average [2, 8]: 91.1 s; Duration (0-5 Minutes) Average [2, 8]: 149.0 s
8 | Cc1nc(Cn2c(=O)c3c(ncn3CC(=O)Nc3csc(-c4cnc(C(F)(F)F)c(C)c4)n3)n(C)c2=O)no1 [Compound 253, 2-(3-methyl-1-((5-methyl-1,2,4-oxadiazol-3-yl)methyl)-2,6-dioxo-2,3-dihydro-1H-purin-7(6H)-yl)-N-(2-(5-methyl-6-(trifluoromethyl)pyridin-3-yl)thiazol-4-yl)acetamide] | 20 | 76.4 | 116.0 | Duration (0-2 Minutes) Average [2, 7]: 79.3 s; Duration (0-5 Minutes) Average [2, 7]: 126.4 s; Duration (0-2 Minutes) Average [2, 8]: 78.8 s; Duration (0-5 Minutes) Average [2, 8]: 119.6 s
9 | CC#CCn1c(=O)c2c(ncn2[C@@H](C)C(=O)Nc2csc(-c3cnc(N4CC5C(C4)C5(F)F)nc3)n2)n(C)c1=O (stereo partly drawn) [Compound 267, (2S)-2-(1-(but-2-ynyl)-3-methyl-2,6-dioxo-2,3-dihydro-1H-purin-7(6H)-yl)-N-(2-(2-(6,6-difluoro-3-azabicyclo[3.1.0]hexan-3-yl)pyrimidin-5-yl)thiazol-4-yl)propanamide] | 2 | – | – | –
10 | CC#CCn1c(=O)c2c(ncn2[C@@H](C)C(=O)Nc2csc(-c3cnc(N4CCC[C@H]4C(F)(F)F)nc3)n2)n(C)c1=O [Compound 268, (S)-2-(1-(but-2-ynyl)-3-methyl-2,6-dioxo-2,3-dihydro-1H-purin-7(6H)-yl)-N-(2-(2-((S)-2-(trifluoromethyl)pyrrolidin-1-yl)pyrimidin-5-yl)thiazol-4-yl)propanamide] | 1 | – | – | –
11 | COCC(=O)Cn1c(=O)c2c(ncn2[C@@H](C)C(=O)Nc2csc(-c3ccc(N4CC5C(C4)C5(F)F)nc3)n2)n(C)c1=O (stereo partly drawn) [Compound 269, (2S)—N-(2-(6-(6,6-difluoro-3-azabicyclo[3.1.0]hexan-3-yl)pyridin-3-yl)thiazol-4-yl)-2-(1-(3-methoxy-2-oxopropyl)-3-methyl-2,6-dioxo-2,3-dihydro-1H-purin-7(6H)-yl)propanamide] | 4 | – | – | –
12 | CCC(=O)Cn1c(=O)c2c(ncn2[C@@H](C)C(=O)Nc2csc(-c3cnc(N4CC5CC5C4)cn3)n2)n(C)c1=O (stereo partly drawn) [Compound 270, (2S)—N-(2-(5-(3-azabicyclo[3.1.0]hexan-3-yl)pyrazin-2-yl)thiazol-4-yl)-2-(3-methyl-2,6-dioxo-1-(2-oxobutyl)-2,3-dihydro-1H-purin-7(6H)-yl)propanamide] | 3 | – | – | –
13 | COCC(=O)Cn1c(=O)c2c(ncn2[C@@H](C)C(=O)Nc2cncc(-c3ccc(N4CC5CC5C4)nc3)n2)n(C)c1=O (stereo partly drawn) [Compound 271, (2S)—N-(6-(6-(3-azabicyclo[3.1.0]hexan-3-yl)pyridin-3-yl)pyrazin-2-yl)-2-(1-(3-methoxy-2-oxopropyl)-3-methyl-2,6-dioxo-2,3-dihydro-1H-purin-7(6H)-yl)propanamide] | 5 | – | – | –
14 | COCC(=O)Cn1c(=O)c2c(ncn2[C@@H](C)C(=O)Nc2cccc(-c3cnc(N4CC5C(C4)C5(F)F)cn3)n2)n(C)c1=O (stereo partly shown) [Compound 272] | 7 | – | – | –
15 | (S)-2-(3-methyl-1-((3-methyl-1,2,4-oxadiazol-5-yl)methyl)-2,6-dioxo-2,3-dihydro-1H-purin-7(6H)-yl)-N-(5′-methyl-6′-(trifluoromethyl)-[2,3′-bipyridin]-6-yl)propanamide [Compound 134] | 3 | – | – | –
